Laboratory results: the supplement of paper PMC4121296
± gives the standard deviation of the averaged measurements.

Tests used:
Details in all cases: exposure: 5-72 hpf
[1] = tested on: Danio rerio embryo (fli1:egfp); experiment: heart rate at 72 hpf (beats per minute); higher = faster heart rate
Protocol: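 fli1:egfp zebrafish embryos exposed 5-72 hpf to chemical (0.05-50 µM, 0.1% DMSO) in 384-well plates; heart rate at 72 hpf quantified from stream acquisitions by semi-automated MetaXpress journal (peak counting); only embryos in concentrations passing survival/body-length criteria analyzed.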

[2] = tested on: Danio rerio embryo (fli1:egfp); experiment: arterial (dorsal aorta) circulation score at 72 hpf (normalized DA-Max (arbitrary units)); higher = more circulation
Protocol: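 fli1:egfp zebrafish embryos exposed 5-72 hpf to chemical (0.05-50 µM, 0.1% DMSO); arterial circulation at 72 hpf quantified from stream acquisitions of the dorsal aorta by FFT-based analysis (DA-Max, normalized dorsal aorta signal); only concentrations passing survival/body-length criteria analyzed.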

[3] = tested on: Danio rerio embryo (fli1:egfp); experiment: intersegmental vessel area normalized to body length at 72 hpf (ISV area / body length (normalized units)); higher = more vessel area
Protocol: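 fli1:egfp zebrafish embryos exposed 5-72 hpf to chemical (0.05-50 µM, 0.1% DMSO); intersegmental vessel (ISV) eGFP area quantified by MetaXpress journal at 72 hpf and normalized to body length.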

[4] = tested on: Danio rerio embryo (fli1:egfp); experiment: body length at 72 hpf (µm); higher = longer body (less growth inhibition)
Protocol: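 Transgenic fli1:egfp zebrafish embryos (one per well, 384-well plate) exposed statically from 5 to 72 hpf at 28 °C to chemical (0.05-50 µM, 0.1% DMSO); at 72 hpf anesthetized and imaged on ImageXpress; body length of live, hatched, correctly oriented embryos measured by automated MetaXpress journal. Dead/unhatched/misoriented embryos have no value.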

[5] = tested on: Danio rerio embryo (fli1:egfp); experiment: pericardial area at 72 hpf (image area units (not stated)); higher = larger pericardial area (edema)
Protocol: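 fli1:egfp zebrafish embryos exposed 5-72 hpf to chemical (0.05-50 µM, 0.1% DMSO); pericardial area at 72 hpf measured by semi-automated MetaXpress journal (increase indicates edema).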

CCOC(=O)C(C)OC(=O)c1cc(Oc2ccc(C(F)(F)F)cc2Cl)ccc1[N+](=O)[O-] (stereo unspecified) [Lactofen]
Details	arterial, [2]	body length at 72 hpf, [4]	heart rate at 72 hpf, [1]	intersegmental vessel area normalized, [3]	pericardial area at 72 hpf, [5]
0.05 µM	8.21 ± 2.9	3000 ± 200	189 ± 13	84.8 ± 18	13400 ± 4500
0.098 µM	7.39 ± 2.9	3000 ± 76	187 ± 15	87.9 ± 14	17300 ± 4400
0.195 µM	8.26 ± 3.4	2990 ± 150	191 ± 14	81.5 ± 23	15800 ± 5200
0.39 µM	8.42 ± 2.9	2940 ± 140	188 ± 14	83.3 ± 24	15800 ± 4700
0.78 µM	5.92 ± 2.7	2950 ± 140	191 ± 15	82.4 ± 19	19300 ± 9600
1.56 µM	6.43 ± 2.5	2980 ± 160	193 ± 15	85.2 ± 18	19800 ± 11000
3.125 µM	5.46 ± 2.5	2960 ± 160	190 ± 20	88 ± 20	21500 ± 7200
6.25 µM	4.85 ± 1.7	2910 ± 140	188 ± 13	92.9 ± 12	21200 ± 5700
12.5 µM	4.13 ± 1.4	2910 ± 130	187 ± 25	99.7 ± 7.6	23900 ± 11000

CC(C)Oc1cc(-n2nc(C(C)(C)C)oc2=O)c(Cl)cc1Cl [Oxadiazon]
Details	arterial, [2]	body length at 72 hpf, [4]	heart rate at 72 hpf, [1]	intersegmental vessel area normalized, [3]	pericardial area at 72 hpf, [5]
0.05 µM	14.6 ± 4.2	3090 ± 97	179 ± 12	85.1 ± 22	14800 ± 3700
0.098 µM	14 ± 5.9	3060 ± 110	184 ± 26	88.1 ± 20	13700 ± 4000
0.195 µM	13.8 ± 4.9	3090 ± 84	190 ± 13	90.3 ± 20	15400 ± 4000
0.39 µM	14.5 ± 6	3060 ± 87	186 ± 18	82.3 ± 20	15400 ± 3500
0.78 µM	13.1 ± 3.4	3040 ± 95	182 ± 11	82.4 ± 20	16500 ± 5400
1.56 µM	15.4 ± 4.7	2950 ± 220	183 ± 11	83.4 ± 25	14900 ± 4900
3.125 µM	13.2 ± 4.7	3060 ± 83	188 ± 13	85.6 ± 24	15800 ± 3600
6.25 µM	14.1 ± 6	3120 ± 77	190 ± 10	90.4 ± 26	16000 ± 2900
12.5 µM	11.5 ± 3.2	3000 ± 120	181 ± 12	94.5 ± 18	17300 ± 5400
25 µM	9.56 ± 4.9	2960 ± 110	155 ± 19	90.2 ± 17	16800 ± 5000

CCOc1cc(Oc2ccc(C(F)(F)F)cc2Cl)ccc1[N+](=O)[O-] [Oxyfluorfen]
Details	arterial, [2]	body length at 72 hpf, [4]	heart rate at 72 hpf, [1]	intersegmental vessel area normalized, [3]	pericardial area at 72 hpf, [5]
0.0244 µM	12.2 ± 3.4	3050 ± 87	183 ± 20	86.8 ± 20	14300 ± 3900
0.05 µM	15 ± 5.9	3020 ± 120	178 ± 19	86.7 ± 19	14500 ± 3800
0.098 µM	13.5 ± 4.5	2990 ± 110	180 ± 19	88.8 ± 21	14900 ± 3100
0.195 µM	15.8 ± 5.5	2990 ± 110	187 ± 16	79 ± 22	14500 ± 4300
0.39 µM	14.3 ± 6.2	2990 ± 93	185 ± 18	95.7 ± 16	15500 ± 4400
0.78 µM	13.4 ± 5.1	3000 ± 120	192 ± 19	90.7 ± 20	13400 ± 4100
1.56 µM	14.4 ± 4.6	2850 ± 120	190 ± 13	89.4 ± 21	13400 ± 2700
3.125 µM	12 ± 6.7	2980 ± 160	193 ± 18	87.2 ± 22	16200 ± 4000
6.25 µM	10.5 ± 4.5	2960 ± 150	194 ± 13	100 ± 18	15900 ± 5100
12.5 µM	7.87 ± 4.7	2840 ± 130	192 ± 19	90.5 ± 22	15300 ± 5000
25 µM	–	2660 ± 150	–	–	–

CCOC(=O)COc1cc(-c2nn(C)c(OC(F)F)c2Cl)c(F)cc1Cl [Pyraflufen-ethyl]
Details	arterial, [2]	body length at 72 hpf, [4]	heart rate at 72 hpf, [1]	intersegmental vessel area normalized, [3]	pericardial area at 72 hpf, [5]
0.05 µM	10.9 ± 5.3	3030 ± 120	171 ± 14	83.6 ± 15	15700 ± 5300
0.098 µM	8.57 ± 3.6	3020 ± 110	174 ± 18	92.3 ± 16	15400 ± 2800
0.195 µM	10.5 ± 4.4	3020 ± 100	174 ± 27	84.6 ± 16	15300 ± 3600
0.39 µM	9.67 ± 4.3	3040 ± 120	167 ± 14	86.7 ± 15	17100 ± 4000
0.78 µM	10.2 ± 5.1	2950 ± 300	169 ± 12	81.6 ± 19	16800 ± 4600
1.56 µM	7.3 ± 3.3	2980 ± 140	169 ± 19	85.2 ± 15	20600 ± 6600
3.125 µM	4.92 ± 2.7	2960 ± 77	160 ± 13	86.2 ± 17	20000 ± 5900
6.25 µM	3.84 ± 1.6	2890 ± 140	163 ± 26	86 ± 18	25300 ± 11000
25 µM	3.2 ± 0.82	2790 ± 120	148 ± 31	96.9 ± 12	25400 ± 7700
